The nature of one data set: in vivo. The conditions noted are these: mouse, po. On the procedure:
Column C provides data relating to acute toxicity (LD50; mice, peroral administration).
2. Determination of the toxicity-
Various doses of the substances (volume: 10 ml/kg) are administered orally by means of a stomach tube. The observation time is 7 days.

The test system of data set [1] is blood glucose concentration. Description: Determination of glucose in the blood after a single oral administration (fasting, metabolically healthy rats). The following applies: Rattus norvegicus. The data set is classed as in vivo, rat (young male Sprague-Dawley). On the procedure: Table I reflects investigations of the effect of representative compounds according to the invention on the blood glucose concentration of fasting, metabolically healthy rats which are observed for 6 hours after a single oral administration of from 0.01 to 0.6 mmol of substance/kg of body weight.
1. Determination of glucose in the blood after a single oral administration-
Young male Sprague-Dawley rats (body weight: 150 to 200 g) are used. The animals are kept in Makrolon cages with up to 4 animals per cage (ambient temperature: 23° C., relative atmospheric humidity: 55%, fixed day/night rhythm [12/12 hours], standard diet: Altromin®). The rats are deprived of the feed 18 hours before the first sample of blood is taken. Water is available ad libitum. Samples of blood are taken from the postorbital plexus by puncture immediately before and 3 and 6 hours after administration of the substance.
After deproteinization with perchloric acid, the glucose in the blood is determined by means of the enzymatic HK/G-6-PDH method of R. Richterich [Klinische Chemie, Theorie und Praxis, (Clinical Chemistry, Theory and Practice), 3rd edition, 1971, S. Karger Verlag, Zurich-Basle, page 275]. A control group (treated with pure solvent) is also investigated in each case for comparison.

The mark [2] stands for this setting: rats p.o., single dose, fasting, observed for 6 hours, with reference to control group, read-out: ED50 (15%): dose which effects a lowering of the blood glucose concentration by at least 15% in 50% of the animals.
Setting [3] is: rats p.o., single dose, fasting, observed for 6 hours, with reference to control group, read-out: ED50 (25%): dose which effects a lowering of the blood glucose concentration by at least 25% in 50% of the animals.

Read-outs that look alike come from different tables or passages of the source.

For the molecule `CCOC(=O)C1(CCCCCOc2ccc(Cl)cc2)CO1` (stereo not drawn) [Serial No. 6, 2-[5-(4-Chlorophenoxy)pentyl]oxirane-2-carboxylic acid ethyl ester], the LD50 at 168 h in “in vivo” amounted to 310 mg/kg. In addition, the ED50 was 5 mg/kg in data set [1] (setting [2]) and 6 mg/kg in data set [1] (setting [3]).

Regarding `CCOC(=O)C1(CCCCCCOc2ccc(Cl)cc2)CO1` (stereo not drawn) [Serial No. 5, 2-[6-(4-Chlorophenoxy)hexyl]oxirane-2-carboxylic acid ethyl ester], the LD50 at 168 h in the data set “in vivo” came out at 300 mg/kg. The ED50 in data set [1] (setting [2]) is < 7 mg/kg; in data set [1] (setting [3]) it was 7 mg/kg.

As for `CCCCNC(=N)NC(=N)N` [Serial No. 1, Buformin, reference compound], the ED50 in data set [1] (6 h, read-out: ED50 (15%): dose which effects a lowering of the blood glucose concentration by at least 15% in 50% of the animals) was > 100 mg/kg; in data set [1] (6 h, read-out: ED50 (25%): dose which effects a lowering of the blood glucose concentration by at least 25% in 50% of the animals), 194 mg/kg.

On to `CCOC(=O)C1(CCCCOc2cccc(C(F)(F)F)c2)CO1` (stereo not drawn) [Serial No. 4, 2-[4-(3-Trifluoromethylphenoxy)butyl]oxirane-2-carboxylic acid ethyl ester], for which the LD50 at 168 h in “in vivo” was 460 mg/kg. Further, the results for the ED50 in data set [1] (setting [2]) and in data set [1] (setting [3]) were ~7 mg/kg and 13 mg/kg, respectively.

Take `[H]/N=C(/N)N/C(=N/[H])NCCc1ccccc1` [Serial No. 2, Phenformin, reference compound]: the ED50 in data set [1] (setting [2]) is > 150 mg/kg; in data set [1] (setting [3]), > 343 mg/kg.

Consider `CCOC(=O)C1(CCCCOc2cccc(Cl)c2)CO1` (stereo not drawn) [Serial No. 3, 2-[4-(3-Chlorophenoxy)butyl]oxirane-2-carboxylic acid ethyl ester], for which the LD50 at 168 h in the data set “in vivo” is 390 mg/kg. Moreover, the values for the ED50 in data set [1] (setting [2]) and in data set [1] (setting [3]) were 3 mg/kg and 24 mg/kg, respectively.

Regarding `CCOC(=O)C1(CCCCOc2ccc(C)cc2)CO1` (stereo not drawn) [Serial No. 7, 2-[4-(4-Methylphenoxy)butyl]oxirane-2-carboxylic acid ethyl ester], the ED50 in data set [1] (setting [2]) stood at 8 mg/kg; in data set [1] (setting [3]), 19 mg/kg.

(Values after patent publication US4337267A, “Phenalkoxyalkyl- and phenoxyalkyl-substituted oxiranecarboxylic acids, their use and medicaments containing them” (Byk Gulden Lomberg Chemische Fabrik GmbH, priority 1980, dated 1982).)
